Among the data in ChEMBL document CHEMBL3046658, “Fate of cyromazine applied in nutrient solution to a gerbera (Gerbera jamesonii) crop grown in a closed hydroponic system” (Crop Prot, 2007) are Drug recovery and Drug uptake values, retold here.

Holding throughout (assay type): ADME
The test system of series [1] is Flower. As to the kind of experiment: Drug recovery in flower of Gerbera jamesonii grown in closed hydroponic system at 45 g applied through nutrient solution measured on day 56 post-treatment by gas chromatographic analysis. Conditions: in vivo, other; call rule not given here.
Series [2] relates to Leaf. As to the kind of experiment: Drug recovery in leaf of Gerbera jamesonii grown in closed hydroponic system at 22.5 g applied through nutrient solution measured on day 56 post-treatment by gas chromatographic analysis. Conditions: in vivo, other.
Series [3] concerns Root. As to the kind of experiment: Drug level in root of Gerbera jamesonii grown in closed hydroponic system assessed per fresh weight at 750 mg/l applied through nutrient solution measured on day 121 post-treatment in winter by gas chromatographic analysis. Conditions: other.
Series [4] relates to Leaf. Nature of the series: Drug level in leaf of Gerbera jamesonii grown in closed hydroponic system assessed per fresh weight at 750 mg/l applied through nutrient solution measured on day 56 post-treatment in winter by gas chromatographic analysis. Conditions: other.
In series [5] the test system is Flower. Nature of the series: Drug level in flower of Gerbera jamesonii grown in closed hydroponic system at 375 mg/l applied through nutrient solution measured 48 hr post-treatment in winter by gas chromatographic analysis. Conditions: other.
Series [6] deals with Leaf. Nature of the series: Drug level in leaf of Gerbera jamesonii grown in closed hydroponic system assessed per fresh weight at 750 mg/l applied through nutrient solution measured on day 121 post-treatment in winter by gas chromatographic analysis. The settings on record: other.
In series [7] the test system is Flower. As to the kind of experiment: Drug level in flower of Gerbera jamesonii grown in closed hydroponic system assessed per fresh weight at 750 mg/l applied through nutrient solution measured on day 121 post-treatment in winter by gas chromatographic analysis. Conditions: other.
The subject of series [8] is Flower. As to the kind of experiment: Drug recovery in flower of Gerbera jamesonii grown in closed hydroponic system at 22.5 g applied through nutrient solution measured on day 56 post-treatment by gas chromatographic analysis. Conditions: in vivo, other.
Series [9] relates to Leaf. Nature of the series: Drug level in leaf of Gerbera jamesonii grown in closed hydroponic system assessed per fresh weight at 375 mg/l applied through nutrient solution measured on day 50 post-treatment in summer by gas chromatographic analysis. Conditions: other.
For series [10], the system named is Root. As to the kind of experiment: Drug recovery in root of Gerbera jamesonii grown in closed hydroponic system at 45 g applied through nutrient solution measured on day 56 post-treatment by gas chromatographic analysis. Conditions: in vivo, other.
The test system of series [11] is Leaf. Nature of the series: Drug recovery in leaf of Gerbera jamesonii grown in closed hydroponic system at 45 g applied through nutrient solution measured on day 56 post-treatment by gas chromatographic analysis. The settings on record: in vivo, other.
Series [12] deals with Flower. Nature of the series: Drug level in flower of Gerbera jamesonii grown in closed hydroponic system assessed per fresh weight at 375 mg/l applied through nutrient solution measured on day 121 post-treatment in winter by gas chromatographic analysis. Conditions: other.
Series [13] relates to Root. As to the kind of experiment: Drug recovery in root of Gerbera jamesonii grown in closed hydroponic system at 22.5 g applied through nutrient solution measured on day 56 post-treatment by gas chromatographic analysis. Conditions: in vivo, other.
Series [14] relates to Root. As to the kind of experiment: Drug level in root of Gerbera jamesonii grown in closed hydroponic system assessed per fresh weight at 375 mg/l applied through nutrient solution measured on day 121 post-treatment in winter by gas chromatographic analysis. Conditions: other.
In series [15] the test system is Flower. As to the kind of experiment: Drug level in flower of Gerbera jamesonii grown in closed hydroponic system at 750 mg/l applied through nutrient solution measured 48 hr post-treatment in winter by gas chromatographic analysis. Conditions: other.
In series [16] the test system is Leaf. Nature of the series: Drug level in leaf of Gerbera jamesonii grown in closed hydroponic system assessed per fresh weight at 375 mg/l applied through nutrient solution measured on day 56 post-treatment in winter by gas chromatographic analysis. The settings on record: other.
For series [17], the system named is Flower. As to the kind of experiment: Drug level in flower of Gerbera jamesonii grown in closed hydroponic system assessed per fresh weight at 750 mg/l applied through nutrient solution measured on day 56 post-treatment in winter by gas chromatographic analysis. Conditions: other.
Series [18] relates to Leaf. Nature of the series: Drug level in leaf of Gerbera jamesonii grown in closed hydroponic system assessed per fresh weight at 375 mg/l applied through nutrient solution measured on day 121 post-treatment in winter by gas chromatographic analysis. Conditions: other.
Series [19] deals with Flower. As to the kind of experiment: Drug level in flower of Gerbera jamesonii grown in closed hydroponic system assessed per fresh weight at 375 mg/l applied through nutrient solution measured on day 56 post-treatment in winter by gas chromatographic analysis. The settings on record: other.
Series [20] deals with Root. Nature of the series: Drug level in root of Gerbera jamesonii grown in closed hydroponic system assessed per fresh weight at 750 mg/l applied through nutrient solution measured on day 17 post-treatment in winter by gas chromatographic analysis. Conditions: other.
Series [21] has as its system Root. Nature of the series: Drug level in root of Gerbera jamesonii grown in closed hydroponic system assessed per fresh weight at 375 mg/l applied through nutrient solution measured on day 17 post-treatment in winter by gas chromatographic analysis. The settings on record: other.

The structures appear in SMILES notation.

With `Nc1nc(N)nc(NC2CC2)n1` [CYROMAZINE], the Drug recovery in the series with Flower [1] was found to be 27%; with Leaf [2] it was 44%; in the series on Flower [8], 44%; with Root [10] it was 27%; in the series on Leaf [11], 27%; in the series with Root [13], 44%. In addition, the Drug uptake with Root [3] is 15.1 mg/kg; in the series on Leaf [4], 129.7 mg/kg; in the series on Flower [5], “Not Active”; in the series with Leaf [6], 61.8 mg/kg; in the series with Flower [7], 2.2 mg/kg; with Leaf [9], 65.8 mg/kg. The Drug uptake with Flower [12] is 1.9 mg/kg; in the series on Root [14], 12.2 mg/kg; with Flower [15], “Not Active”; with Leaf [16], 105 mg/kg; in the series with Flower [17], 48.2 mg/kg; with Leaf [18], 51.5 mg/kg. Also, the Drug uptake in the series with Flower [19] was 32.3 mg/kg; with Root [20] it was 93 mg/kg; in the series on Root [21], 105 mg/kg.
